Experimental findings from patent publication US9096554B2, “Drugs for inhibiting p38 and uses thereof” (UNIVERSIDAD AUTÓNOMA DE MADRID, priority 2011, dated 2015) are described below.

The structures appear in SMILES notation. Where only a bound is given, the exact number is not on record here.

For series [1], the system named is TNF-α secretion in response to bacterial LPS in human monocytes (THP-1). In words: TNF-α secretion in response to LPS in THP-1 monocytes (ELISA). The format is cell-based. As to conditions: for IC50: Homo sapiens, THP-1, LPS. The procedure: (§1) This assay was performed to analyze the effect of the compounds of the invention on tumor necrosis factor alpha (TNF-α) secretion in response to bacterial lipopolysaccharide (LPS) in human monocytes (THP-1) and on the survival of said THP-1 monocytes in the presence of said compounds.
(§2) Briefly, cells from human monocytic cell line THP-1 (ATCC) at a density of about 10^6 cells/ml were stimulated with bacterial LPS (Sigma, Ref.# L2654) at a concentration of 1 mg/ml for 4 hours in the presence of the compounds of the invention dissolved in dimethyl sulfoxide (DMSO) at different concentrations (0.001, 0.01, 0.1, 1, 10 and 100 μM). The amount of TNF-α secreted into the medium in response to LPS was quantified by means of an ELISA assay (BioTrak, Ref.# RPN2758, GE-Amersham) following the manufacturer's instructions. Cell viability was quantified by means of flow cytometry FACS (FACScalibur, Becton Dickinson) after staining the treated cells with propidium iodide (1 mg/l) and quantifying the amount of positive cells for this stain (Software Cell Quest Pro).
These assays were performed to compare the effect of the compounds of the invention (compounds 1, 2 and 3) on tumor necrosis factor alpha (TNF-α) secretion in response to bacterial lipopolysaccharide (LPS) in human monocytes (THP-1) with respect to compounds that are structurally related but have a different substitution pattern in the phenyl ring. Conditions similar to those described in Example 7 were used.
Background: In an ELISA, binding on a coated surface is turned into a signal by an enzyme label.

For a further series, the system named is THP-1 monocytes. In words: THP-1 monocyte survival (propidium iodide, FACS). The format is cell-based, human. As to conditions: dose causing the death of 50% of the cells; THP-1, propidium iodide FACS. The procedure: as §1, §2
For another series, the target named is p38 MAPK (Homo sapiens, UniProt Q16539). The series is described as follows: Inhibition of MEF2A phosphorylation by p38 MAPK in vitro. In kind it is biochemical. As to conditions: MEF2A (10 nM) phosphorylation by active recombinant p38 (1 nM), 5 minutes. The procedure:
This assay was performed to quantify the effect of the compounds of the invention on MEF2-A phosphorylation by p38 MAPK in vitro.
To that end, briefly, active recombinant p38 (1 nM) and MEF2A (10 nM) were incubated with different concentrations of Compound 1 in a kinase buffer for 5 minutes. The proteins were resolved using SDS-PAGE and the activity of p38 was measured as phosphorylated MEF2A using anti-P-MEF2A (T312), a specific antibody. The mean of the results is graphically depicted as a percentage with respect to the controls (DMSO) of two independent experiments conducted in duplicate. For comparative purposes, Compound 5 at a concentration of 10 μM was used.
Finally, the in vitro mean inhibitory concentration (IC50) of this reaction for each assayed compound was determined as the measurement of the efficacy of a compound for inhibiting this biochemical function using a sufficient range of concentrations of each of these compounds (data not shown).

The subject of a further series is LysM-GRK2^f/+ mice. In words: Carrageenan-induced hyperalgesia in LysM-GRK2f/+ mice, intrathecal injection. In kind it is in vivo. Particulars: 4 μg intrathecal. The source says: To perform this assay, a previously described protocol was followed [Willemen H L, et al., Microglial/macrophage GRK2 determines duration of peripheral IL-1beta-induced hyperalgesia: contribution of spinal cord CX3CR1, p38 and IL-1 signaling. Pain. 2010 September; 150(3):550-60; and Eijkelkamp N, et al., (http://www.ncbi.nlm.nih.gov/pubmed/20147541; J. Neurosci. 2010 Feb. 10; 30(6):2138-49). Briefly, eight female LysM-GRK2^f/+ mice (2 mice per group, 4 paws for each condition) were subjected to an intraplantar injection of carrageenan (Sigma-Aldrich, […] of a 1% solution in saline) for inducing inflammatory-type hyperalgesia in the extremities. Seven (7) days after injecting carrageenan, the paw withdrawal latency time when the paw is in contact with heat was determined as an indication of inflammatory-type pain at time 0 (T=0). The carrier (20% DMSO) or Compound 1 at different concentrations (0.15, 0.5 and 1.5 μg in 5 μL of 20% DMSO) was then intrathecally injected.
The paw withdrawal latency periods were then measured at different times (0.5, 1, 2, 4, 6, 8, 10, 24, 48 and 96 hours after injecting the compound).
To evaluate the effect of Compound 5 on hyperalgesia induced in mice, a protocol similar to that described for Compound 1 in Example 9A was followed, but in this protocol, the known p38 MAPK inhibitor SB239063 (5 μg in 5 μL of 20% DMSO), the carrier (20% DMSO), or Compound 5 (4 μg in 5 μL of 20% DMSO) was intrathecally injected 7 days after injecting the carrageenan.

Where [2] appears, read: Table 3, comparison with positional isomers.

Sequence of p38 MAPK (Q16539 whole entry): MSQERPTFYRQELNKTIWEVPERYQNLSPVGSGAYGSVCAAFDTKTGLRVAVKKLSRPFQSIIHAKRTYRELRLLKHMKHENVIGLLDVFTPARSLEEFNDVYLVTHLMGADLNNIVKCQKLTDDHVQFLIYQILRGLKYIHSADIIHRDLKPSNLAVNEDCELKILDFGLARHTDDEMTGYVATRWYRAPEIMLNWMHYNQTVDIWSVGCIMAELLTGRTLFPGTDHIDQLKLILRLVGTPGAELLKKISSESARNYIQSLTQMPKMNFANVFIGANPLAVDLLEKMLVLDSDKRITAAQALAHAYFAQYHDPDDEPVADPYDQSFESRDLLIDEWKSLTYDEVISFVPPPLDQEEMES

As usually defined, the IC50 is the concentration that inhibits the measured activity by half. Molecule `O=[N+]([O-])c1ccc(Nc2cc(Cl)ccc2O)c2nonc12` [Compound 2, 4-chloro-2-(7-nitro-benzo[1,2,5]oxadiazol-4-ylamino)-phenol] displayed an IC50 in series [1] (Table 2, TNF-α ELISA) of 3.2 ± 0.25 µM. Also, in series [1] (human monocytes, FIG. 8), the “activity in TNF-α secretion inhibition compared with comparative Compounds 10-14” value was “greater activity”. Further, the “TD50 (μM)” value with THP-1 monocytes is recorded as >100 μM (n = 2).

As for `Cc1ccc(Nc2ccc([N+](=O)[O-])c3nonc23)cc1Cl` [Compound 7, reference compound], the IC50 in series [1] (setting [2]) was 17 ± 1.41 µM.

For `COc1ccc(Cl)cc1C(=O)Nc1ccc(Cl)c2nonc12` [Compound 4, 5-chloro-N-(7-chloro-benzo[1,2,5]oxadiazol-4-yl)-2-methoxy-benzamide], in series [1] (Table 2, TNF-α ELISA), 3.2 µM corresponded to half-maximal inhibition (IC50).

In series [1] (Table 2, TNF-α ELISA), `O=[N+]([O-])c1ccc(Nc2cc(F)ccc2F)c2nonc12` [Compound 3, (2,5-difluoro-phenyl)-(7-nitro-benzo[1,2,5]oxadiazol-4-yl)-amine] came in with an IC50 of 2.9 ± 0.41 µM.

For `Cc1ccc(Cl)cc1Nc1cc(Cl)c2nonc2c1[N+](=O)[O-]` [Compound 5, (5-chloro-2-methyl-phenyl)-(7-chloro-4-nitro-benzo[1,2,5]oxadiazol-5-yl)-amine], the IC50 at p38 MAPK came to 10 µM; in series [1] (Table 2, TNF-α ELISA), 0.3 µM. For the same molecule, the “TD50 (μM)” value in the series on THP-1 monocytes is on record as >35 μM (n = 3). The “time after administering at which the decrease in hyperalgesia can be detected” value with LysM-GRK2^f/+ mice is on record as 8 days. The “hyperalgesia (paw withdrawal latency to heat)” value in the series on LysM-GRK2^f/+ mice (7 days after carrageenan, FIG. 12) is “decrease in hyperalgesia”.

`O=[N+]([O-])c1ccc(Nc2cccc(F)c2F)c2nonc12` [Compound 9, reference compound] gave an IC50 in series [1] (Table 4, comparison with positional isomer) of 5.25 ± 0.35 µM. For the same molecule, the “capacity for reducing TNF-α secretion compared with Compound 3” value in series [1] (human monocytes, FIG. 7) is “lower capacity”.

As for `Cc1ccc(Nc2ccc([N+](=O)[O-])c3nonc23)c(Cl)c1` [Compound 8, reference compound], the IC50 in series [1] (setting [2]) is 29 ± 1.41 µM.

As to `Cc1ccc(C)c(Nc2cc(Cl)c3nonc3c2[N+](=O)[O-])c1` [Compound 6, (7-chloro-4-nitro-benzo[1,2,5]oxadiazol-5-yl)-(2,5-dimethyl-phenyl)-amine], the IC50 in series [1] (Table 2, TNF-α ELISA) came out at 3 µM.
